Literature values, collected in patent publication US8071772B2, “Spirolactam bicyclic CGRP receptor antagonists” (Merck Sharp & Dohme Corp., priority 2005, dated 2011).
No end group written: not given here.

Assays:
facial blood flow [1] = settings: marmoset; Doods et al. 2000
[2] = tested on: diameter of the middle meningeal artery; settings: rat, prior administration; Williamson et al. 1997
facial blood flow [3] = settings: rat; Escott et al. 1995

## NCCCC[C@H](NC(=O)[C@@H](Cc1cc(Br)c(O)c(Br)c1)NC(=O)N1CCC(N2Cc3ccccc3NC2=O)CC1)C(=O)N1CCN(c2ccncc2)CC1 [BIBN4096BS]
Facial blood flow [1]
  effect on increase in facial blood flow: blocked

## CGRP(8-37): a peptide CGRP antagonist; fragment of CGRP that lacks seven N-terminal amino acid residues (VTHRLAGLLSRSGGVVKNNFVPTNVGSKAF; ends and bridges not checked; UniProt P06881 90-119, looked up, fragment)
[2]
  effect on increase of middle meningeal artery diameter: blocked
Facial blood flow [3]
  effect on increased facial blood flow: inhibited
